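How tested: cells in 96-well plates exposed to compound for 48 hours at five concentrations. Here, GI50 denotes the concentration required for 50% inhibition of growth.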 The source made the active and inactive calls. Cut-off read from the data, not from the text of the source: active = GI50 up to about 1.1 µM and inactive = higher.
How the values were obtained:
Experiment in all cases: NCI-60 cell line screen, 48 h
786-0 = system: 786-0
A498 = system: A498
A549 = system: A549
ACHN = system: ACHN
BT-549 = system: BT-549
CAKI-1 = system: CAKI-1
CCRF-CEM = system: CCRF-CEM
COLO 205 = system: COLO 205
DU-145 = system: DU-145
EKVX = system: EKVX
HCC 2998 = system: HCC 2998
HCT-116 = system: HCT-116
HCT-15 = system: HCT-15
HOP-62 = system: HOP-62
HOP-92 = system: HOP-92
HT-29 = system: HT-29
Hs-578T = system: Hs-578T
IGROV-1 = system: IGROV-1
K562 = system: K562
KM12 = system: KM12
LOX IMVI = system: LOX IMVI
M14 = system: M14
MCF7 = system: MCF7
MDA-MB-231 = system: MDA-MB-231
MDA-MB-435 = system: MDA-MB-435
MDA-N = system: MDA-N
MOLT-4 = system: MOLT-4
Malme-3M = system: Malme-3M
NCI-H226 = system: NCI-H226
NCI-H23 = system: NCI-H23
NCI-H460 = system: NCI-H460
NCI-H522 = system: NCI-H522
NCI/ADR-RES = system: NCI/ADR-RES
OVCAR-3 = system: OVCAR-3
OVCAR-4 = system: OVCAR-4
OVCAR-5 = system: OVCAR-5
OVCAR-8 = system: OVCAR-8
PC-3 = system: PC-3
RPMI-8226 = system: RPMI-8226
SF-268 = system: SF-268
SF-295 = system: SF-295
SF-539 = system: SF-539
SK-MEL-28 = system: SK-MEL-28
SK-MEL-5 = system: SK-MEL-5
SK-OV-3 = system: SK-OV-3
SN12C = system: SN12C
SNB-19 = system: SNB-19
SR = system: SR
SW-620 = system: SW-620
T47D = system: T47D
TK-10 = system: TK-10
U-251 = system: U-251
UACC-257 = system: UACC-257
UACC-62 = system: UACC-62
UO-31 = system: UO-31
SNB-75 = system: SNB-75
RXF 393 = system: RXF 393
SK-MEL-2 = system: SK-MEL-2

`N#CCN1c2ccccc2CCC1Cl` (stereo not drawn) was tested, and the GI50 (786-0) was > 10 µM (inactive), the GI50 (A498) was > 10 µM (inactive) and the GI50 (A549) was > 10 µM (inactive). For the same compound, the GI50 (ACHN) was > 10 µM (inactive), the GI50 (BT-549) was > 10 µM (inactive) and the GI50 (CAKI-1) was > 10 µM (inactive). The GI50 (CCRF-CEM) was > 10 µM (inactive), the GI50 (COLO 205) was > 10 µM (inactive) and the GI50 (DU-145) was > 10 µM (inactive). The GI50 (EKVX) was > 10 µM (inactive), the GI50 (HCC 2998) was > 10 µM (inactive) and the GI50 (HCT-116) was > 10 µM (inactive). The GI50 (HCT-15) was over 10 µM, the GI50 (HOP-62) was > 10 µM (inactive) and the GI50 (HOP-92) was > 10 µM (inactive). For the same compound, the GI50 (HT-29) was > 10 µM (inactive), the GI50 (Hs-578T) was > 10 µM (inactive) and the GI50 (IGROV-1) was > 10 µM (inactive). The GI50 (K562) was > 10 µM (inactive), the GI50 (KM12) was > 10 µM (inactive) and the GI50 (LOX IMVI) was > 10 µM (inactive). The GI50 (M14) was > 10 µM (inactive), the GI50 (MCF7) was > 10 µM (inactive) and the GI50 (MDA-MB-231) was > 10 µM (inactive). The GI50 (MDA-MB-435) was > 10 µM (inactive), the GI50 (MDA-N) was > 10 µM (inactive) and the GI50 (MOLT-4) was > 10 µM (inactive). For the same compound, the GI50 (Malme-3M) was > 10 µM (inactive), the GI50 (NCI-H226) was > 10 µM (inactive) and the GI50 (NCI-H23) was > 10 µM (inactive). The GI50 (NCI-H460) was > 10 µM (inactive), the GI50 (NCI-H522) was > 10 µM (inactive) and the GI50 (NCI/ADR-RES) was > 10 µM (inactive). For the same compound, the GI50 (OVCAR-3) was > 10 µM (inactive), the GI50 (OVCAR-4) was > 10 µM (inactive) and the GI50 (OVCAR-5) was > 10 µM (inactive). For the same compound, the GI50 (OVCAR-8) was > 10 µM (inactive), the GI50 (PC-3) was > 10 µM (inactive) and the GI50 (RPMI-8226) was > 10 µM (inactive). For the same compound, the GI50 (SF-268) was > 10 µM (inactive), the GI50 (SF-295) was > 10 µM (inactive) and the GI50 (SF-539) was > 10 µM (inactive). For the same compound, the GI50 (SK-MEL-28) was > 10 µM (inactive), the GI50 (SK-MEL-5) was > 10 µM (inactive) and the GI50 (SK-OV-3) was > 10 µM (inactive). For the same compound, the GI50 (SN12C) was > 10 µM (inactive), the GI50 (SNB-19) was > 10 µM (inactive) and the GI50 (SR) was > 10 µM (inactive). The GI50 (SW-620) was > 10 µM (inactive), the GI50 (T47D) was > 10 µM (inactive) and the GI50 (TK-10) was > 10 µM (inactive). For the same compound, the GI50 (U-251) was > 10 µM (inactive), the GI50 (UACC-257) was > 10 µM (inactive) and the GI50 (UACC-62) was > 10 µM (inactive). The GI50 (UO-31) was > 10 µM (inactive).
With `O=C(O)Cn1ncn(NC(=O)Cc2ccccc2)c1=S` the GI50 (786-0) was > 10 µM (inactive), the GI50 (A498) was > 10 µM (inactive) and the GI50 (A549) was > 10 µM (inactive). The GI50 (ACHN) was > 10 µM (inactive), the GI50 (BT-549) was > 10 µM (inactive) and the GI50 (CAKI-1) was > 10 µM (inactive). For the same compound, the GI50 (CCRF-CEM) was > 10 µM (inactive), the GI50 (COLO 205) was > 10 µM (inactive) and the GI50 (DU-145) was > 10 µM (inactive). The GI50 (EKVX) was > 10 µM (inactive), the GI50 (HCC 2998) was > 10 µM (inactive) and the GI50 (HCT-116) was > 10 µM (inactive). The GI50 (HCT-15) was over 10 µM, the GI50 (HOP-62) was > 10 µM (inactive) and the GI50 (HOP-92) was > 10 µM (inactive). The GI50 (HT-29) was > 10 µM (inactive), the GI50 (Hs-578T) was > 10 µM (inactive) and the GI50 (IGROV-1) was > 10 µM (inactive). The GI50 (K562) was > 10 µM (inactive), the GI50 (KM12) was > 10 µM (inactive) and the GI50 (LOX IMVI) was > 10 µM (inactive). The GI50 (M14) was > 10 µM (inactive), the GI50 (MCF7) was > 10 µM (inactive) and the GI50 (MDA-MB-231) was > 10 µM (inactive). The GI50 (MDA-MB-435) was > 10 µM (inactive), the GI50 (MDA-N) was > 10 µM (inactive) and the GI50 (MOLT-4) was > 10 µM (inactive). The GI50 (Malme-3M) was > 10 µM (inactive), the GI50 (NCI-H23) was > 10 µM (inactive) and the GI50 (NCI-H460) was > 10 µM (inactive). For the same compound, the GI50 (NCI-H522) was > 10 µM (inactive), the GI50 (NCI/ADR-RES) was > 10 µM (inactive) and the GI50 (OVCAR-3) was > 10 µM (inactive). For the same compound, the GI50 (OVCAR-4) was > 10 µM (inactive), the GI50 (OVCAR-5) was > 10 µM (inactive) and the GI50 (OVCAR-8) was > 10 µM (inactive). The GI50 (PC-3) was > 10 µM (inactive), the GI50 (RPMI-8226) was > 10 µM (inactive) and the GI50 (SF-268) was > 10 µM (inactive). The GI50 (SF-295) was > 10 µM (inactive), the GI50 (SF-539) was > 10 µM (inactive) and the GI50 (SK-MEL-28) was > 10 µM (inactive). For the same compound, the GI50 (SK-MEL-5) was > 10 µM (inactive), the GI50 (SK-OV-3) was > 10 µM (inactive) and the GI50 (SN12C) was > 10 µM (inactive). For the same compound, the GI50 (SNB-19) was > 10 µM (inactive), the GI50 (SNB-75) was > 10 µM (inactive) and the GI50 (SR) was > 10 µM (inactive). The GI50 (SW-620) was > 10 µM (inactive), the GI50 (T47D) was > 10 µM (inactive) and the GI50 (TK-10) was > 10 µM (inactive). For the same compound, the GI50 (U-251) was > 10 µM (inactive), the GI50 (UACC-257) was > 10 µM (inactive) and the GI50 (UACC-62) was > 10 µM (inactive). For the same compound, the GI50 (UO-31) was > 10 µM (inactive).
In the case of `COc1ccc(/C=C/C(=O)NCC(NC(=O)/C=C/c2ccc(OC)c(OC)c2)C(=O)O)cc1OC` (stereo not drawn), the GI50 (786-0) is reported as > 100 µM (inactive), the GI50 (A498) is reported as > 100 µM (inactive) and the GI50 (A549) is reported as > 100 µM (inactive). The GI50 (ACHN) was > 100 µM (inactive), the GI50 (BT-549) was > 100 µM (inactive) and the GI50 (CAKI-1) was > 100 µM (inactive). The GI50 (CCRF-CEM) was > 100 µM (inactive), the GI50 (COLO 205) was > 100 µM (inactive) and the GI50 (DU-145) was > 100 µM (inactive). The GI50 (EKVX) was > 100 µM (inactive), the GI50 (HCC 2998) was > 100 µM (inactive) and the GI50 (HCT-116) was > 100 µM (inactive). For the same compound, the GI50 (HCT-15) was under 0.01 µM, the GI50 (HOP-62) was > 100 µM (inactive) and the GI50 (HOP-92) was 0.0163 µM (active). For the same compound, the GI50 (HT-29) was > 100 µM (inactive), the GI50 (Hs-578T) was > 100 µM (inactive) and the GI50 (IGROV-1) was < 0.01 µM (active). The GI50 (K562) was > 100 µM (inactive), the GI50 (KM12) was > 100 µM (inactive) and the GI50 (LOX IMVI) was > 100 µM (inactive). For the same compound, the GI50 (M14) was > 100 µM (inactive), the GI50 (MCF7) was > 100 µM (inactive) and the GI50 (MDA-MB-231) was > 100 µM (inactive). For the same compound, the GI50 (MDA-MB-435) was > 100 µM (inactive), the GI50 (MDA-N) was > 100 µM (inactive) and the GI50 (MOLT-4) was > 100 µM (inactive). For the same compound, the GI50 (Malme-3M) was > 100 µM (inactive), the GI50 (NCI-H226) was > 100 µM (inactive) and the GI50 (NCI-H23) was > 100 µM (inactive). For the same compound, the GI50 (NCI-H460) was > 100 µM (inactive), the GI50 (NCI-H522) was > 100 µM (inactive) and the GI50 (NCI/ADR-RES) was 0.0169 µM (active). The GI50 (OVCAR-3) was > 100 µM (inactive), the GI50 (OVCAR-4) was > 100 µM (inactive) and the GI50 (OVCAR-5) was > 100 µM (inactive). For the same compound, the GI50 (OVCAR-8) was > 100 µM (inactive), the GI50 (PC-3) was > 100 µM (inactive) and the GI50 (RPMI-8226) was > 100 µM (inactive). The GI50 (RXF 393) was > 100 µM (inactive), the GI50 (SF-268) was > 100 µM (inactive) and the GI50 (SF-295) was > 100 µM (inactive). For the same compound, the GI50 (SF-539) was > 100 µM (inactive), the GI50 (SK-MEL-28) was > 100 µM (inactive) and the GI50 (SK-MEL-2) was > 100 µM (inactive). For the same compound, the GI50 (SK-MEL-5) was > 100 µM (inactive), the GI50 (SK-OV-3) was > 100 µM (inactive) and the GI50 (SN12C) was > 100 µM (inactive). The GI50 (SNB-19) was > 100 µM (inactive), the GI50 (SNB-75) was > 100 µM (inactive) and the GI50 (SR) was > 100 µM (inactive). For the same compound, the GI50 (SW-620) was > 100 µM (inactive), the GI50 (T47D) was > 100 µM (inactive) and the GI50 (TK-10) was > 100 µM (inactive). The GI50 (U-251) was > 100 µM (inactive), the GI50 (UACC-257) was > 100 µM (inactive) and the GI50 (UACC-62) was > 100 µM (inactive). The GI50 (UO-31) was > 100 µM (inactive).
